A word on the IC50: it is the concentration that inhibits the measured activity by half.

The target in test [1] is T1, beta-catenin/TCF4 engagement (Homo sapiens, UniProt P35222).
T1 construct: expressed in transfected cells; host or cells: HEK293
T1 sequence (P35222 1-781): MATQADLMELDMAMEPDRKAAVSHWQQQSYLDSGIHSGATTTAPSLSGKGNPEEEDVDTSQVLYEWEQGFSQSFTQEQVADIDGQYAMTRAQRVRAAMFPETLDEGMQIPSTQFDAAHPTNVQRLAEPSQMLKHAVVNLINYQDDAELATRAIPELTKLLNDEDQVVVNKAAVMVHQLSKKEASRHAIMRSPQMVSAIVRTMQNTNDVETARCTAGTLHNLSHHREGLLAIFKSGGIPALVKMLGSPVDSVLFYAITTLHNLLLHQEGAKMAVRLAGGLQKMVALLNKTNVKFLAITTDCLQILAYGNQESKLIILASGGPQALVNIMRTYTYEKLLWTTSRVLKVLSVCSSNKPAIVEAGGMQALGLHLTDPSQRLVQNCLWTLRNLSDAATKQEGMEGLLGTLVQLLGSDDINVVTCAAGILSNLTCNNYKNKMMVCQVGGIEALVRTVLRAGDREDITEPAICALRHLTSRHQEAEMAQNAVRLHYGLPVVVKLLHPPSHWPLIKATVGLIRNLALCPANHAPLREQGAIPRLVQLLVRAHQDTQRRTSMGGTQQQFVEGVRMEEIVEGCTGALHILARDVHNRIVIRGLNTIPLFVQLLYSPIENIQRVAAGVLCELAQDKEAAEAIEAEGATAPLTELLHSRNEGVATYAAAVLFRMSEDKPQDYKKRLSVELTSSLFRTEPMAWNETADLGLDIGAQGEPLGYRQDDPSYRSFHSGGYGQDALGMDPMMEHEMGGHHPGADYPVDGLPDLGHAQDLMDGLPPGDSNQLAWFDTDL
The test can be described thus: Nano-BRET target engagement assay (B-cat-Halo & TCF4-Luc in HEK293 cells). In kind it is cell-based. Particulars: absolute IC50; read-out: NanoBRET Abs IC50. A general note: BRET reads energy transfer from a luciferase to a nearby fluorophore.

The target in test [2] is T2, full-length beta-Catenin (Uniprot ID P35222) (Homo sapiens, UniProt P35222).
T2 construct: 10 nM full-length beta-Catenin (Uniprot ID P35222)
T2 sequence (P35222 1-781): T1 sequence (P35222 1-781)
The test can be described thus: Fluorescence polarization IC50 (beta-catenin / 5FAM-TCF4 10-53 competition). Particulars: fluorescence polarization; read-out: beta-Catenin FP IC50. In kind it is binding. A general note: Fluorescence polarisation rises when a labelled molecule tumbles more slowly, as on binding a larger partner.

For the molecule `CCCC[C@@H]1NC(=O)[C@H](CC(=O)O)NC(=O)[C@]2(CC=CCCCC3(CCCC=CCCCCCC[C@@](C)(C(=O)N[C@@H](Cc4ccccc4)C(=O)N[C@@H](Cc4csc5ccccc45)C(=O)N[C@@H](CCC(N)=O)C(N)=O)NC(=O)[C@H](CCC(N)=O)NC(=O)[C@H](Cc4ccccc4)NC(=O)[C@H](C)NC(=O)[C@H](C)NC(=O)[C@H](CCC(=O)O)NC(=O)[C@H](CC(=O)O)NC3=O)NC1=O)CCCN2C(C)=O` (stereo partly drawn) [I-1522, Ac-PL3-Asp-nLeu-B5-Asp-Glu-Ala-Ala-Phe-Gln-S8-Phe-BztA-Gln-NH2], the IC50 in test [1] stood at 5800 nM; in test [2] it was 6 nM.
Consider `CCCC[C@@H]1NC(=O)[C@H](CC(=O)O)NC(=O)[C@]2(CC=CCCCC3(CCCC=CCCCCCC[C@@](C)(C(=O)N[C@@H](Cc4ccccc4)C(=O)N[C@@H](Cc4csc5ccccc45)C(=O)N[C@@H](CCC(N)=O)C(N)=O)NC(=O)[C@H](CC(C)C)NC(=O)[C@H](Cc4ccccc4)NC(=O)[C@H](C)NC(=O)[C@H](C)NC(=O)[C@H](CCC(=O)O)NC(=O)[C@H](CC(=O)O)NC3=O)NC1=O)CCCN2C(C)=O` (stereo partly drawn) [I-1523, Ac-PL3-Asp-nLeu-B5-Asp-Glu-Ala-Ala-Phe-Leu-S8-Phe-BztA-Gln-NH2], for which the values for the IC50 in test [1] and in test [2] were 8000 nM and 29 nM, respectively.
Regarding `CCCC[C@@H]1NC(=O)[C@H](CC(=O)O)NC(=O)[C@]2(CC=CCCCC3(CCCC=CCCCCCC[C@@](C)(C(=O)N[C@@H](Cc4ccccc4)C(=O)N[C@@H](Cc4csc5ccccc45)C(=O)N[C@@H](CCC(N)=O)C(N)=O)NC(=O)[C@H](CCO)NC(=O)[C@H](Cc4ccccc4)NC(=O)[C@H](C)NC(=O)[C@H](C)NC(=O)[C@H](CCC(=O)O)NC(=O)[C@H](CC(=O)O)NC3=O)NC1=O)CCCN2C(C)=O` (stereo partly drawn) [I-1524, Ac-PL3-Asp-nLeu-B5-Asp-Glu-Ala-Ala-Phe-Hse-S8-Phe-BztA-Gln-NH2], the IC50 in test [1] stood at 8100 nM; in test [2], 17 nM.
As for `CCCC[C@@H]1NC(=O)[C@H](CC(=O)O)NC(=O)[C@]2(CC=CCCCC3(CCCC=CCCCCCC[C@@](C)(C(=O)N[C@@H](Cc4ccccc4)C(=O)N[C@@H](Cc4csc5ccccc45)C(=O)N[C@@H](CCC(N)=O)C(N)=O)NC(=O)[C@H](CCO)NC(=O)[C@H](Cc4ccccc4)NC(=O)[C@H](C)NC(=O)[C@H](C)NC(=O)[C@H](CCC(=O)O)NC(=O)[C@H](CC(=O)O)NC3=O)NC1=O)CCCN2C(C)=O` (stereo partly drawn) [I-1525, Ac-PL3-Asp-nLeu-B5-Asp-Glu-Ala-Ala-Phe-Hse-S8-Phe-BztA-Gln-NH2], the IC50 was 10800 nM in test [1] and 22 nM in test [2].
Consider `CC(=O)N1CCC[C@]12CC=CCCCC1(CCCC=CCCCCCC[C@@](C)(C(=O)N[C@@H](Cc3ccccc3)C(=O)N[C@@H](Cc3csc4ccccc34)C(=O)N[C@@H](CCC(N)=O)C(N)=O)NC(=O)[C@H](CCC(N)=O)NC(=O)[C@H](Cc3ccccc3)NC(=O)[C@H](C)NC(=O)[C@H](C)NC(=O)[C@H](CCC(=O)O)NC(=O)[C@H](CC(=O)O)NC1=O)NC(=O)[C@H](CO)NC(=O)[C@H](CC(=O)O)NC2=O` (stereo partly drawn) [I-1526, Ac-PL3-Asp-Ser-B5-Asp-Glu-Ala-Ala-Phe-Gln-S8-Phe-BztA-Gln-NH2], for which the IC50 in test [1] is greater than 20000 nM; in test [2] it was 84 nM.
In the same order, the values of `CC(=O)N1CCC[C@]12CC=CCCCC1(CCCC=CCCCCCC[C@@](C)(C(=O)N[C@@H](Cc3ccccc3)C(=O)N[C@@H](Cc3csc4ccccc34)C(=O)N[C@@H](CCC(N)=O)C(N)=O)NC(=O)[C@H](CCC(N)=O)NC(=O)[C@H](Cc3ccccc3)NC(=O)[C@H](C)NC(=O)[C@H](C)NC(=O)[C@H](CCC(=O)O)NC(=O)[C@H](CC(=O)O)NC1=O)NC(=O)[C@H](CO)NC(=O)[C@H](CC(=O)O)NC2=O` (stereo partly drawn) [I-1527, Ac-PL3-Asp-Ser-B5-Asp-Glu-Ala-Ala-Phe-Gln-S8-Phe-BztA-Gln-NH2] are 30300 nM and 36 nM.
Take `CC(=O)N1CCC[C@]12CC=CCCCC1(CCCC=CCCCCCC[C@@](C)(C(=O)N[C@@H](Cc3ccccc3)C(=O)N[C@@H](Cc3csc4ccccc34)C(=O)N[C@@H](CCC(N)=O)C(N)=O)NC(=O)[C@H](CC(C)C)NC(=O)[C@H](Cc3ccccc3)NC(=O)[C@H](C)NC(=O)[C@H](C)NC(=O)[C@H](CCC(=O)O)NC(=O)[C@H](CC(=O)O)NC1=O)NC(=O)[C@H](CO)NC(=O)[C@H](CC(=O)O)NC2=O` (stereo partly drawn) [I-1528, Ac-PL3-Asp-Ser-B5-Asp-Glu-Ala-Ala-Phe-Leu-S8-Phe-BztA-Gln-NH2]: the IC50 in test [1] is 31400 nM; in test [2] it was 102 nM.
With `CC(=O)N1CCC[C@]12CC=CCCCC1(CCCC=CCCCCCC[C@@](C)(C(=O)N[C@@H](Cc3ccccc3)C(=O)N[C@@H](Cc3csc4ccccc34)C(=O)N[C@@H](CCC(N)=O)C(N)=O)NC(=O)[C@H](CCO)NC(=O)[C@H](Cc3ccccc3)NC(=O)[C@H](C)NC(=O)[C@H](C)NC(=O)[C@H](CCC(=O)O)NC(=O)[C@H](CC(=O)O)NC1=O)NC(=O)[C@H](CO)NC(=O)[C@H](CC(=O)O)NC2=O` (stereo partly drawn) [I-1530, Ac-PL3-Asp-Ser-B5-Asp-Glu-Ala-Ala-Phe-Hse-S8-Phe-BztA-Gln-NH2], the IC50 in test [1] was 36900 nM; in test [2], 61 nM.
As for `CC(=O)N1CCC[C@]12CC=CCCCC1(CCCC=CCCCCCC[C@@](C)(C(=O)N[C@@H](Cc3ccccc3)C(=O)N[C@@H](Cc3csc4ccccc34)C(=O)N[C@@H](CCC(N)=O)C(N)=O)NC(=O)[C@H](CCC(N)=O)NC(=O)[C@H](Cc3ccccc3)NC(=O)[C@H](C)NC(=O)[C@H](C)NC(=O)[C@H](CCC(=O)O)NC(=O)[C@H](CC(=O)O)NC1=O)NC(=O)[C@H](CC(N)=O)NC(=O)[C@H](CC(=O)O)NC2=O` (stereo partly drawn) [I-1531, Ac-PL3-Asp-Asn-B5-Asp-Glu-Ala-Ala-Phe-Gln-S8-Phe-BztA-Gln-NH2], the IC50 is greater than 20000 nM in test [1] and 84 nM in test [2].
In the same order, the values of `CC(=O)N1CCC[C@]12CC=CCCCC1(CCCC=CCCCCCC[C@@](C)(C(=O)N[C@@H](Cc3ccccc3)C(=O)N[C@@H](Cc3csc4ccccc34)C(=O)N[C@@H](CCC(N)=O)C(N)=O)NC(=O)[C@H](CCC(N)=O)NC(=O)[C@H](Cc3ccccc3)NC(=O)[C@H](C)NC(=O)[C@H](C)NC(=O)[C@H](CCC(=O)O)NC(=O)[C@H](CC(=O)O)NC1=O)NC(=O)[C@H](CC(N)=O)NC(=O)[C@H](CC(=O)O)NC2=O` (stereo partly drawn) [I-1532, Ac-PL3-Asp-Asn-B5-Asp-Glu-Ala-Ala-Phe-Gln-S8-Phe-BztA-Gln-NH2] are greater than 20000 nM and 49 nM.
With `CC(=O)N1CCC[C@]12CC=CCCCC1(CCCC=CCCCCCC[C@@](C)(C(=O)N[C@@H](Cc3ccccc3)C(=O)N[C@@H](Cc3csc4ccccc34)C(=O)N[C@@H](CCC(N)=O)C(N)=O)NC(=O)[C@H](CC(C)C)NC(=O)[C@H](Cc3ccccc3)NC(=O)[C@H](C)NC(=O)[C@H](C)NC(=O)[C@H](CCC(=O)O)NC(=O)[C@H](CC(=O)O)NC1=O)NC(=O)[C@H](CC(N)=O)NC(=O)[C@H](CC(=O)O)NC2=O` (stereo partly drawn) [I-1533, Ac-PL3-Asp-Asn-B5-Asp-Glu-Ala-Ala-Phe-Leu-S8-Phe-BztA-Gln-NH2], the results for the IC50 in test [1] and in test [2] were greater than 20000 nM and 76 nM, respectively.
In the same order, the values of `CC(=O)N1CCC[C@]12CC=CCCCC1(CCCC=CCCCCCC[C@@](C)(C(=O)N[C@@H](Cc3ccccc3)C(=O)N[C@@H](Cc3csc4ccccc34)C(=O)N[C@@H](CCC(N)=O)C(N)=O)NC(=O)[C@H](CCO)NC(=O)[C@H](Cc3ccccc3)NC(=O)[C@H](C)NC(=O)[C@H](C)NC(=O)[C@H](CCC(=O)O)NC(=O)[C@H](CC(=O)O)NC1=O)NC(=O)[C@H](CC(N)=O)NC(=O)[C@H](CC(=O)O)NC2=O` (stereo partly drawn) [I-1534, Ac-PL3-Asp-Asn-B5-Asp-Glu-Ala-Ala-Phe-Hse-S8-Phe-BztA-Gln-NH2] are greater than 20000 nM and 181 nM.
With `CC(=O)N1CCC[C@]12CC=CCCCC1(CCCC=CCCCCCC[C@@](C)(C(=O)N[C@@H](Cc3ccccc3)C(=O)N[C@@H](Cc3csc4ccccc34)C(=O)N[C@@H](CCC(N)=O)C(N)=O)NC(=O)[C@H](CCO)NC(=O)[C@H](Cc3ccccc3)NC(=O)[C@H](C)NC(=O)[C@H](C)NC(=O)[C@H](CCC(=O)O)NC(=O)[C@H](CC(=O)O)NC1=O)NC(=O)[C@H](CC(N)=O)NC(=O)[C@H](CC(=O)O)NC2=O` (stereo partly drawn) [I-1535, Ac-PL3-Asp-Asn-B5-Asp-Glu-Ala-Ala-Phe-Hse-S8-Phe-BztA-Gln-NH2], the IC50 in test [1] is greater than 20000 nM; in test [2], 72 nM.
In the same order, the values of `CC(=O)N1CCC[C@]12CC=CCCCC1(CCCC=CCCCCCC[C@@](C)(C(=O)N[C@@H](Cc3ccccc3)C(=O)N[C@@H](Cc3csc4ccccc34)C(=O)N[C@@H](CCC(N)=O)C(N)=O)NC(=O)[C@H](CCO)NC(=O)[C@H](Cc3ccccc3)NC(=O)[C@H](C)NC(=O)[C@H](C)NC(=O)[C@H](CCC(=O)O)NC(=O)[C@H](CC(=O)O)NC1=O)NC(=O)[C@H](CCC(C)C)NC(=O)[C@H](CC(=O)O)NC2=O` (stereo partly drawn) [I-1537, Ac-PL3-Asp-Hleu-B5-Asp-Glu-Ala-Ala-Phe-Hse-S8-Phe-BztA-Gln-NH2] are 13900 nM and 31 nM.

Source of the values: patent publication US20240116985A1, “STAPLED PEPTIDES AND METHODS THEREOF” (priority 2020, published 2024).
